Laboratory results published in ChEMBL document CHEMBL1149969, “Conformationally restricted inhibitors of the high affinity -glutamate transporter” (Bioorg Med Chem Lett, 1993).

B1: Excitatory amino acid transporter 2 (Rattus norvegicus), P31596 (protein)
chain: MASTEGANNMPKQVEVRMHDSHLSSEEPKHRNLGMRMCDKLGKNLLLSLTVFGVILGAVCGGLLRLAAPIHPDVVMLIAFPGDILMRMLKMLILPLIISSLITGLSGLDAKASGRLGTRAMVYYMSTTIIAAVLGVILVLAIHPGNPKLKKQLGPGKKNDEVSSLDAFLDLIRNLFPENLVQACFQQIQTVTKKVLVAPPSEEANTTKAVISLLNETMNEAPEETKIVIKKGLEFKDGMNVLGLIGFFIAFGIAMGKMGEQAKLMVEFFNILNEIVMKLVIMIMWYSPLGIACLICGKIIAIKDLEVVARQLGMYMITVIVGLIIHGGIFLPLIYFVVTRKNPFSFFAGIFQAWITALGTASSAGTLPVTFRCLEDNLGIDKRVTRFVLPVGATINMDGTALYEAVAAIFIAQMNGVILDGGQIVTVSLTATLASIGAASIPSAGLVTMLLILTAVGLPTEDISLLVAVDWLLDRMRTSVNVVGDSFGAGIVYHLSKSELDTIDSQHRMHEDIEMTKTQSVYDDTKNHRESNSNQCVYAAHNSVVIDECKVTLAANGKSADCSVEEEPWKREK

What was measured:
[1] = biological target: Excitatory amino acid transporter 2 (Rattus norvegicus) (UniProt P31596); experiment: Attenuation of the sodium-dependent uptake of [3H]D-aspartate into synaptosomes prepared from rat forebrain at 250 uM.; assay type: subcellular; conditions: Brain
[2] = biological target: Excitatory amino acid transporter 2 (Rattus norvegicus) (UniProt P31596); experiment: Tested for the ability to attenuate the sodium-dependent uptake of [3H]D-aspartate (5 uM) into synaptosomes prepared from rat forebrain at 25 uM; assay type: subcellular; conditions: Brain
[3] = The compound was tested for binding affinity towards Excitatory amino acid receptors of rat brain synaptosomes; IE means ineffective; assay type: subcellular
Rattus norvegicus = species on record: Rattus norvegicus; experiment: Tested for the competitive inhibitory activity against D-aspartate transport in rat synaptosomes; assay type: functional, Brain
[4] = compound: O=C(O)[C@@H]1CN[C@@H](C(=O)O)C1; experiment: Tested for the competitive inhibitory activity against L-glutamate transport in rat synaptosomes; assay type: subcellular; conditions: Brain

Row | Molecule | Control [1] [%] | Control [2] [%] | also measured
1 | C=C(C)[C@H]1CN[C@H](C(=O)O)[C@H]1CC(=O)O | 39 | – | –
2 | CCOCC1[C@H](C(=O)O)CN[C@H]1C(=O)O (stereo partly drawn) | 55 | – | –
3 | N[C@@H](CCC(=O)O)C(=O)O | – | 40 | –
4 | O=C(O)CC1[C@H](C(=O)O)CN[C@H]1C(=O)O (stereo partly drawn) | 95 | – | –
5 | O=C(O)C[C@@H]1CN[C@H](C(=O)O)C1 | 74 | – | –
6 | O=C(O)C[C@H]1CCN[C@@H]1C(=O)O | 74 | – | –
7 | CC(C)[C@H]1CN[C@H](C(=O)O)[C@H]1CC(=O)O (single isomer, unassigned) | 25 | 83 | –
8 | O=C(O)[C@@H]1CN[C@@H](C(=O)O)C1 (stereo in doubt; form 1) [listing 1 of 2 here] | – | – | Ki [3]: Ineffective; Ki (Rattus norvegicus): 1300 nM
9 | O=C(O)[C@@H]1CCN[C@H]1C(=O)O (stereo in doubt; form 1) | 81 | – | –
10 | O=C(O)[C@@H]1CN[C@@H](C(=O)O)C1 (stereo in doubt; form 1) [listing 2 of 2 here] | 0 | 18 | –
11 | O=C(O)[C@@H]1CN[C@H](C(=O)O)C1 (stereo in doubt; form 1) | 105 | – | –
12 | O=C(O)[C@@H]1CN[C@H]1C(=O)O (stereo in doubt; form 1) | 109 | – | –
13 | O=C(O)[C@H]1NCC[C@H]1C(=O)O (stereo in doubt; form 1) | 38 | 94 | –
14 | O=C(O)[C@H]1NC[C@H]1C(=O)O (stereo in doubt; form 1) | 53 | 96 | –
15 | O=C(O)[C@@H]1CCN[C@H]1C(=O)O (stereo in doubt; form 2) | 107 | – | –
16 | O=C(O)[C@@H]1CN[C@@H](C(=O)O)C1 (stereo in doubt; form 2) | 54 | 88 | –
17 | O=C(O)[C@@H]1CN[C@H](C(=O)O)C1 (stereo in doubt; form 2) | 36 | 82 | –
18 | O=C(O)[C@@H]1CN[C@H]1C(=O)O (stereo in doubt; form 2) | 100 | – | –
19 | O=C(O)[C@H]1NCC[C@H]1C(=O)O (stereo in doubt; form 2) | 108 | – | –
20 | O=C(O)[C@H]1NC[C@H]1C(=O)O (stereo in doubt; form 2) | 98 | – | –
21 | B1 | – | – | Km [4]: 3 µM
